As a reminder, the IC50 is the concentration needed to halve the response being measured. Higher therefore signals weaker potency in that assay.

Data set [1] concerns the target T1, prostacyclin receptors (IP receptors) of human thrombocyte membranes (Homo sapiens, UniProt P43119).
T1 construct: 300-1000 μg/ml human thrombocyte membranes per charge; tissue Maco Pharma, Langen (buffy coats); host or cells: human thrombocyte (platelet) membranes prepared from human blood buffy coats
Kind of data set: Binding to prostacyclin receptors (IP receptors) of human thrombocyte membranes (3H-Iloprost displacement). The settings on record: 3 nM 3H-Iloprost, 60 min, room temperature. The protocol:
B-1. Studies of Binding to Prostacyclin Receptors (IP Receptors) of Human Thrombocyte Membranes
Thrombocyte membranes are obtained by centrifuging 50 ml human blood (Buffy coats with CDP Stabilizer, from Maco Pharma, Langen) for 20 min at 160×g. Remove the supernatant (platelet-rich plasma, PRP) and then centrifuge again at 2000×g for 10 min at room temperature. Resuspend the sediment in 50 mM tris-(hydroxymethyl)-aminomethane, which has been adjusted to a pH of 7.4 with 1 N hydrochloric acid, and store at −20° C. overnight. On the next day, centrifuge the suspension at 80000×g and 4° C. for 30 minDiscard the supernatant. Resuspend the sediment in 50 mM tris-(hydroxymethyl)-aminomethane/hydrochloric acid, 0.25 mM ethylene diamine tetraacetic acid (EDTA), pH 7.4, and then centrifuge once again at 80000×g and 4° C. for 30 min. Take up the membrane sediment in binding buffer (50 mM tris-(hydroxymethyl)-aminomethane/hydrochloric acid, 5 mM magnesium chloride, pH 7.4) and store at −70° C. until the binding test.
For the binding test, incubate 3.nM ^3H-Iloprost (592 GBq/mmol, from AmershamBioscience) for 60 min with 300-1000 μg/ml human thrombocyte membranes per charge (max. 0.2 ml) in the presence of the test substances at room temperature. After stopping, add cold binding buffer to the membranes and wash with 0.1% bovine serum albumin. After adding Ultima Gold Scintillator, quantify the radioactivity bound to the membranes using a scintillation counter. The nonspecific binding is defined as radioactivity in the presence of 1 μM Iloprost (from Cayman Chemical, Ann Arbor) and is as a rule <25% of the bound total radioactivity. The binding data (IC50 values) are determined using the program GraphPad Prism Version 3.02.

For data set [2] the following is noted: rapid non-enzymatic transformation to inactive metabolite 6-keto-prostaglandin-F1alpha; cited from earlier work.

T1 sequence (P43119 whole entry): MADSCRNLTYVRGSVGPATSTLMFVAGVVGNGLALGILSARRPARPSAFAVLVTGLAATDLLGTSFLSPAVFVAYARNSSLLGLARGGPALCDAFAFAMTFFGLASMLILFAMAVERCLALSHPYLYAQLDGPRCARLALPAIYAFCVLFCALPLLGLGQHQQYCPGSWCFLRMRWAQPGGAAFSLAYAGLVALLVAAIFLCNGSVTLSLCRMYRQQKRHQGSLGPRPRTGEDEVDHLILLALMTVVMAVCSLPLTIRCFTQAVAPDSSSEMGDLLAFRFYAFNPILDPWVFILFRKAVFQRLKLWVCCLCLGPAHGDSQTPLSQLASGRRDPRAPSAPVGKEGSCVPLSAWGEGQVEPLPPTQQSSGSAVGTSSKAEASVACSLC

For the compound `COc1ccc(-c2c(-c3ccccc3)oc3ncnc(O[C@H]4CCC[C@H](OCC(=O)O)C4)c23)cc1` (racemic) [Example 69], the IC50 in data set [1] is 8 nM.

`CCc1ccc(-c2c(-c3ccccc3)oc3ncnc(N[C@H]4CCC[C@H](OCC(=O)O)C4)c23)cc1` (racemic) [Example 146] returned an IC50 in data set [1] of 20 nM.

Compound `COc1ccc(-c2c(-c3ccccc3)oc3ncnc(O[C@H]4CCC[C@@H](OCC(=O)O)C4)c23)cc1` (single isomer, unassigned) [Example 67] displayed an IC50 in data set [1] of 388 nM.

Turning to `COc1ccc(-c2c(-c3ccccc3)oc3ncnc(O[C@H]4CCC[C@@H](OCC(=O)O)C4)c23)cc1` (single isomer, unassigned) [Example 68], in data set [1], the IC50 was found to be 34 nM.

`CCc1ccc(-c2c(-c3ccccc3)oc3ncnc(O[C@@H]4CCCN(CCCC(=O)O)C4)c23)cc1F` (single isomer, unassigned) [Example 159]: the IC50 in data set [1] is 83 nM.

`O=C(O)COc1cccc(Nc2ncnc3oc(-c4ccccc4)c(-c4ccc(F)cc4)c23)c1` [Example 6, 3-{[5-(4-Fluorophenyl)-6-phenylfuro[2,3-d]pyrimidin-4-yl]amino}phenoxyacetic acid] registered an IC50 in data set [1] of 237 nM.

In data set [1], `COC(=O)COc1cccc(Nc2ncnc3oc(-c4ccccc4)c(-c4ccc(OC)cc4)c23)c1` [Example 9, 3-{[5-(4-methoxyphenyl)-6-phenylfuro[2,3-d]pyrimidin-4-yl]amino}phenoxyacetic acid methyl ester] yielded an IC50 of 43 nM.

Regarding `COc1ccc(-c2c(-c3ccccc3)oc3ncnc(Nc4cccc(OCC(=O)O)c4)c23)cc1` [Example 10, 3-{[5-(4-Methoxyphenyl)-6-phenylfuro[2,3-d]pyrimidin-4-yl]amino}phenoxyacetic acid], the IC50 in data set [1] worked out at 18 nM.

In turn, `COc1ccc(-c2c(-c3ccccc3)oc3ncnc(Nc4cccc(/C=C/C(=O)O)c4)c23)cc1` [Example 21, (2E)-3-(3-{[5-(4-Methoxyphenyl)-6-phenylfuro[2,3-d]pyrimidin-4-yl]amino}phenyl)acrylic acid] came in with an IC50 in data set [1] of 11 nM.

In turn, `COc1ccc(-c2c(-c3ccccc3)oc3ncnc(Oc4ccc(CCC(=O)O)cc4)c23)cc1` [Example 24, 3-(4-{[5-(4-Methoxyphenyl)-6-phenylfuro[2,3-d]pyrimidin-4-yl]oxy}phenyl)propanoic acid] yielded an IC50 in data set [1] of 15 nM.

Compound `COc1ccc(-c2c(-c3ccccc3)oc3ncnc(OC4CCCN(CCCC(=O)O)C4)c23)cc1` (centres unmarked) [Example 84] had an IC50 in data set [1] of 152 nM.

`COc1ccc(-c2c(-c3ccccc3)oc3ncnc(N[C@H]4CCC[C@H](OCC(=O)O)C4)c23)cc1` [Example 87] registered an IC50 in data set [1] of 17 nM.

Turning to `COc1ccc(-c2c(-c3ccccc3)oc3ncnc(O[C@@H]4CCCN(CCc5nnn[nH]5)C4)c23)cc1` [Example 99], the IC50 in data set [1] was found to be 34 nM.

`CCc1ccc(-c2c(-c3ccccc3)oc3ncnc(O[C@@H]4CCCN(CCCC(=O)O)C4)c23)cc1` [Example 154] displayed an IC50 in data set [1] of 28 nM.

For `O=C(O)CO[C@@H]1CCC[C@H](Oc2ncnc3oc(-c4ccccc4)c(-c4ccc(Cl)cc4)c23)C1` [Example 156], the IC50 in data set [1] was determined as 293 nM.

The compound `COc1ccc(-c2c(-c3ccccc3)oc3ncnc(O[C@H]4CC[C@H](OCC(=O)O)C4)c23)cc1` [Example 162] had an IC50 in data set [1] of 37 nM.

With `COc1ccc(-c2c(-c3ccccc3)oc3ncnc(N[C@H]4CC[C@@H](OCC(=O)O)C4)c23)cc1` [Example 168], the IC50 in data set [1] stood at 71 nM.

The compound `COc1ccc(-c2c(-c3ccccc3)oc3ncnc(N[C@@H]4CC[C@@H](OCC(=O)O)C4)c23)cc1` [Example 170] had an IC50 in data set [1] of 6 nM.

Regarding `CCc1ccc(-c2c(-c3ccccc3)oc3ncnc(O[C@@H]4C=C[C@@H](OCC(=O)O)C4)c23)cc1` [Example 175], the IC50 in data set [1] worked out at 13 nM.

`CCc1ccc(-c2c(-c3ccccc3)oc3ncnc(N[C@@H]4C=C[C@@H](OCC(=O)O)C4)c23)cc1` [Example 176] returned an IC50 in data set [1] of 24 nM.

`CCc1ccc(-c2c(-c3ccccc3F)oc3ncnc(O[C@@H]4CCCN(CCCC(=O)O)C4)c23)cc1` [Example 181, 4-[(3R)-3-{[5-(4-Ethylphenyl)-6-(2-fluorophenyl)furo[2,3-d]pyrimidin-4-yl]oxy}piperidin-1-yl]-butyric acid] returned an IC50 in data set [1] of 27 nM.

Take `COC(=O)CCCN1CCC[C@@H](Oc2ncnc3oc(-c4ccccc4F)c(-c4ccc(OC)cc4)c23)C1` [Example 183, 4-[(3R)-3-{[6-(2-Fluorophenyl)-5-(4-methoxyphenyl)furo[2,3-d]pyrimidin-4-yl]oxy}piperidin-1-yl]butyric acid methyl ester]: the IC50 in data set [1] worked out at 218 nM.

With `CCCCC[C@H](O)/C=C/[C@@H]1[C@H]2C/C(=C/CCCC(=O)O)O[C@H]2C[C@H]1O` [PGI2, Prostacyclin], the half-life result in data set [2] is listed as “approx. 3 minutes”.

These data come from patent US8324222B2, “Cyclically substituted furopyrimidine derivatives and use thereof” (Bayer Intellectual Property GmbH, priority 2005, dated 2012).
